Patent US6869923B1, “Perfume compositions” (Procter & Gamble Company, priority 1998, dated 2005)

Test system: panelist
Experiment: Odor detection threshold (ODT) by gas chromatograph with sniff port
Set-up: species or system human
Conditions: GC sniff port, average across panelists
Method: Odor detection thresholds are determined using a gas chromatograph. The gas chromatograph is calibrated to determine the exact volume of material injected by the syringe, the precise split ratio, and the hydrocarbon response using a hydrocarbon standard of known concentration and chain-length distribution. The air flow rate is accurately measured and, assuming the duration of a human inhalation to last […], the sampled volume is calculated. […] A panelist sniffs the GC effluent and identifies the retention time when odor is noticed. The average across all panelists determines the threshold of noticeability. […] Typical gas chromatograph parameters for determining odor detection thresholds are listed below. • GC: 5890 Series II with FID detector • 7673 Autosampler • Column: J&W Scientific DB-1 • Length 30 meters ID 0.25 mm film thickness 1 micron • Method: • Split Injection: 17/1 split ratio • Autosampler: 1.13 microliters per injection • Column Flow: 1.10 mL/minute • Air Flow: 345 mL/minute • Inlet Temp. 245° C. • Detector Temp. 285° C. • Temperature Information • Initial Temperature: 50° C. • Rate: 5 C/minute • Final Temperature: 280° C. • Final Time: 6 minutes • Leading assumptions: • (i) 12 seconds per sniff • (ii) GC air adds to sample dilution A-High Impact Accord (“HIA”) Perfume Ingredients of Class 1

| Molecule | ODT [PPB] |
| --- | --- |
| 3-Methyl-4(5)-Cyclopentadecenone | <50 |
| CC1COC(C)(c2ccc3c(c2)C(C)(C)CCC3(C)C)O1 (stereo not shown) [2,4,Dimethyl-2-(1,1,4,4 tetramethyl) tetralin-6-yl)-13-dioxolane] | <50 |
| CC1=CCC(C(C)CC2CCCC2=O)CC1 (stereo not shown) [2-(2-(4 methyl-3-Cyclohexen-1-yl)propyl)-cyctopentanone.] | <50 |
| CC(CO)C1CCCCCCCCCCC1 (stereo not shown) [2-(Cyclododecyl)-propan-1-ol] | <50 |
| CC1=CCC(C=CC(C)C(C)O)C1(C)C (stereo not shown) [3-Methyl-5-(2,2,3,trimethyl-3-cyclopenten-1-yl)-4-penten-2-ol] | <50 |
| O=C1CCCC=CCCCCCCCCCC1 [5-Cyclohexadecenone-1] | <50 |
| CC1C(C)(C)C2=C(C(=O)CCC2)C1(C)C (stereo not shown) [6,7Dihydro-1,1,2,3,3-Penta-Methyl-4(5H)-Indanone] | <50 |
| CC(=O)C1(C)CC2=C(CCCC2(C)C)CC1C (stereo not shown) [7,Acetyl,1,2,3,4,5,6,7,8-Octahydro-1,1,6,7-Tetra Methyl Naphthalene] | <50 |
| COc1ccc(C=O)cc1 [Anisic Aldehyde] | <50 |
| CC/C=C\CCOC(=O)c1ccccc1O [Cis-3-Hexenyl Salicylate] | <50 |
| CC1=CC(C)C(C=O)CC1 (stereo not shown) [Cyclal C] | <50 |
| CCCC(O)CCC1C(C)CCCC1(C)C (stereo not drawn) [Cyclohexane Propanol 2,2,6 Trimethyl-Alpha-Propyl.] | <50 |
| CCOC(=O)C(C)CC (stereo not shown) [Ethyl-2-methyl Butyrate] | <50 |
| CC(=O)OC1CC2CC1C1CC=CC21 (stereo not shown) [Flor Acetate] | <50 |
| CCC(=O)OC1CC2CC1C1CC=CC21 (stereo not shown) [Frutene] | <50 |
| CC(=O)/C=C/C1=C(C)CCCC1(C)C [Ionone Beta] | <50 |
| C=CC(C)(O)CCC=C(C)C (stereo not shown) [Linalool] | <50 |
| CCCCCCC#CC(=O)OC [Methyl Octine Carbonate] | <50 |
| CCC12CCC3C(C)(C)CCCC3(C)C1CCO2 (stereo not shown) [Naphtho(2.1-B)-furan,3A-Ethyl Dodecahydro-6,6,9A-Trimethyl] | <50 |
| CC(C)=CC1CC(C)CCO1 (stereo not shown) [Rose Oxide] | <50 |
| CCCCCCCCCCC=CC#N [Tridecene-2-nitrile] | <50 |
| Oxacyclohexadecen-2-one | <50 |
